The source of these data is patent publication US6924302B2, “Substituted triazole diamine derivatives as kinase inhibitors” (Ortho McNeil Pharmaceutical, Inc., priority 2000, dated 2005).

Holding throughout (assay type): biochemical
Assay [1] has as its target T1, VEGF-R (vascular endothelial growth factor receptor-2) (Rattus norvegicus, UniProt O08775).
T1 construct: polyhistidine (6xHIS) (N)
Briefly: VEGF-R Screening Assay. Conditions: Table 1; read-out: VEGF-R IC50. The protocol: (§1) 70 μL of the kinase reaction mixture was dispensed into the well of a streptavidin coated FlashPlate™ (Cat. # SMP103, NEN, Boston, Mass.). Then 1 μL of test compound stock in 100% DMSO was added to the wells resulting in a final concentration of 1% DMSO in the reaction with a 100 μL final reaction volume. Next, soluble rat tyrosine kinase containing an N-terminal 6×HIS tag was diluted in 50 mM Tris-HCl pH=8.0, 0.1% BSA at a concentration of 5 ng per μL and 30 μL (150 ng enzyme per test well) was added to each well to initiate the reaction. The reaction was incubated for one hour at 30° C. At the end of the 1-hour incubation, the reaction was terminated by aspirating the reaction mixture from the plate and washing the wells twice with PBS containing 100 mM EDTA. The PLC1 biotinylated peptide substrate became immobilized on the Flashplate™ and the incorporation of ^33P-γ-ATP was measured by reading the plate on a scintillation counter. Inhibition of the enzymatic activity of the VEGF-R was measured by observing a reduced amount of ^33P-γ-ATP incorporated into the immobilized peptide.
(§2) Assays to test compound inhibition of other kinases were preformed using methods that measure the amount of phosphorylation of a biotinylated peptide substrate. Biotinylated peptide substrates were selected from the literature as appropriate for the enzyme being evaluated. […] Assay conditions vary slightly for each protein kinase, for example, insulin receptor kinase requires 10 mM MnCl2 for activity and Calmodulin-dependent protein kinase requires calmodulin and 10 mM CaCl2. These assay conditions are known in the art. The reaction mixture was dispensed into the wells of a streptavidin coated Flashplate and 1 μl drug stock in 100% DMSO was added to a 100 μl reaction volume resulting in a final concentration of 1% DMSO on the reaction. Enzyme was diluted in 50 mM Tris-HCl pH=8.0, 0.1% BSA and add to each well. The reaction was incubated for one hour at 30° C. in the presence of compound. After one hour the reaction mix was aspirated from the plate and the plate was washed with PBS containing 100 mM EDTA. The plate was read on a scintillation counter to determine ^33P-γ-ATP incorporated into the immobilized peptide. Test compounds were assayed in duplicate at 8 concentrations [100 uM, 10 uM, 1 uM, 100 nM, 10 nM, 1 nM, 100 pM, 10 pM]. A maximum and minimum signal for the assay was determined on each plate. The IC50 was calculated from the dose response curve of the percent inhibition of the maximum signal in the assay according to the formula [max signal—background/test compound signal—background (100)=% inhibition] by graphing the percent inhibition against the log concentration of test compound. Known inhibitor compounds appropriate for the kinase being assayed were also included on each plate.
(§3) CDK2 in complex with cyclin A is commercially available (Upstate Biotech, Lake Placid, N.Y.). The CDK4 complex was composed of a mouse CDK4 protein and a mouse Cyclin D1 protein (The mouse CDK4 protein was genetically fused to an N-terminal Flag-epitope tag and the mouse Cyclin D1 protein was fused with an N-terminal AU-1 epitope tag. The genes encoding these proteins were transferred to commercially available baculoviral vectors. The recombinant CDK4/D1 complex was then made by co-infecting commercially available insect cells with viruses carrying these two constructs). […] ERK-1 protein (Discontinued from Calbiochem). EGFR (epidermal growth factor receptor) is purified from human A431 cell membranes (Sigma, St. Louis, Mo., Cat.# E3641).

Assay [2] deals with T2, HER2 (human epidermal growth factor receptor-2) (Homo sapiens, UniProt P04626).
T2 construct: begins at amino acid 676 followed by the remainder of the HER2 cytoplasmic domain; polyhistidine (N)
T2 sequence (P04626 676-1255 limits assumed): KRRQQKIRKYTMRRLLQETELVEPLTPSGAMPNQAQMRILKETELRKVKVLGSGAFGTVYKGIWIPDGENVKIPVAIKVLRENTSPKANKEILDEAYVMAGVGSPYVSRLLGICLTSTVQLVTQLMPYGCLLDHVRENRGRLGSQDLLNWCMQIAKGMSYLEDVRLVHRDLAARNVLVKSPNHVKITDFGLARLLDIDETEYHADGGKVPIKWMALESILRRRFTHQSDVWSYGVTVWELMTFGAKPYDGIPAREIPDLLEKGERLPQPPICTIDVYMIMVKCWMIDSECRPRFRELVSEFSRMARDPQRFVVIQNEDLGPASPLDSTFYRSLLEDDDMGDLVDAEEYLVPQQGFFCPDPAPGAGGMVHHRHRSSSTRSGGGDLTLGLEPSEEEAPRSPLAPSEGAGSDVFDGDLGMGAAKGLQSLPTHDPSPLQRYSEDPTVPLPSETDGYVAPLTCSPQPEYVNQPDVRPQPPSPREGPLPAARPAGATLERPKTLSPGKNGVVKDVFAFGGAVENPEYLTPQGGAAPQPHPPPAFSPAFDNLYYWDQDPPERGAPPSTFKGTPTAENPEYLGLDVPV
Briefly: Kinase Selectivity Assay HER2. Conditions: Table 1; read-out: HER2 IC50. The protocol: as §2, §3

Assay [3] has as its target T3, CDK1:Cyclin-B (Homo sapiens, UniProt P06493).
T3 construct: purchased New England Biolabs 6020; host or cells: insect cells
Kind of assay: CDK1 Screening Assay. Conditions: Table 1; read-out: CDK1 IC50. The protocol:
as §1, with “100 μl” for “100 μL”, “Next, CDK1:Cyclin-B protein” for “Next, soluble rat tyrosine kinase containing an N-terminal 6×HIS tag”, “of 1” for “of 5”, “30 μl (30” for “30 μL (150”, “The histone-H1” for “The PLC1”, “of CDK1” for “of the VEGF-R”
Assays to test compound inhibition of other kinases were preformed using methods that measure the amount of phosphorylation of a biotinylated peptide substrate. Biotinylated peptide substrates were selected from the literature as appropriate for the enzyme being evaluated. […] Assay conditions vary slightly for each protein kinase, for example, insulin receptor kinase requires 10 mM MnCl2 for activity and Calmodulin-dependent protein kinase requires calmodulin and 10 mM CaCl2. These assay conditions are known in the art. The reaction mixture was dispensed into the wells of a streptavidin coated Flashplate and 1 μl drug stock in 100% DMSO was added to a 100 μl reaction volume resulting in a final concentration of 1% DMSO on the reaction. Enzyme was diluted in 50 mM Tris-HCl pH=8.0, 0.1% BSA and add to each well. The reaction was incubated for one hour at 30° C. in the presence of compound. After one hour the reaction mix was aspirated from the plate and the plate was washed with PBS containing 100 mM EDTA. The plate was read on a scintillation counter to determine ^33P-γ-ATP incorporated into the immobilized peptide. Test compounds were assayed in duplicate at 8 concentrations [100 uM, 10 uM, 1 uM, 100 nM, 10 nM, 1 nM, 100 pM, 10 pM]. A maximum and minimum signal for the assay was determined on each plate. The IC50 was calculated from the dose response curve of the percent inhibition of the maximum signal in the assay according to the formula [max signal—background/test compound signal—background (100)=% inhibition] by graphing the percent inhibition against the log concentration of test compound. Known inhibitor compounds appropriate for the kinase being assayed were also included on each plate. […]

T3 sequence (P06493 whole entry): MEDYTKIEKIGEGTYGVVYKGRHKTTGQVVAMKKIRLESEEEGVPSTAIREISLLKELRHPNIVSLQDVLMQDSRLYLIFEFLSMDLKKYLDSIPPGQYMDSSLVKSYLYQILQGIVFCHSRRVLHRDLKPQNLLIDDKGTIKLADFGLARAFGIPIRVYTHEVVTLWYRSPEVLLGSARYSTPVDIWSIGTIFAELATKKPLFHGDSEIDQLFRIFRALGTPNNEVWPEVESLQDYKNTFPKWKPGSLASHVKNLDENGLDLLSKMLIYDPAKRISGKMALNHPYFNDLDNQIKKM
T3 sequence (P14635 whole entry partner): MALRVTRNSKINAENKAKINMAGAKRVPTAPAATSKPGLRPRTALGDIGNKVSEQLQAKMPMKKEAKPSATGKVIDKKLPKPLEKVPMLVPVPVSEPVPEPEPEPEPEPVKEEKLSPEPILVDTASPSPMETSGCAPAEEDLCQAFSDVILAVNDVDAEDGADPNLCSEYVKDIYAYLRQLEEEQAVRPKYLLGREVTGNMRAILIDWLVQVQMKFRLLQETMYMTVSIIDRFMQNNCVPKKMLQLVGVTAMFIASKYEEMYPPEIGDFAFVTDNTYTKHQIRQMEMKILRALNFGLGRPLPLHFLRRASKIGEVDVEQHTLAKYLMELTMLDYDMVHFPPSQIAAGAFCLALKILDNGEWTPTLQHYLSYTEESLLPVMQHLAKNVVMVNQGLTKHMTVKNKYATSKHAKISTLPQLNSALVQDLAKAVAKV
T1 sequence (O08775 786-1343): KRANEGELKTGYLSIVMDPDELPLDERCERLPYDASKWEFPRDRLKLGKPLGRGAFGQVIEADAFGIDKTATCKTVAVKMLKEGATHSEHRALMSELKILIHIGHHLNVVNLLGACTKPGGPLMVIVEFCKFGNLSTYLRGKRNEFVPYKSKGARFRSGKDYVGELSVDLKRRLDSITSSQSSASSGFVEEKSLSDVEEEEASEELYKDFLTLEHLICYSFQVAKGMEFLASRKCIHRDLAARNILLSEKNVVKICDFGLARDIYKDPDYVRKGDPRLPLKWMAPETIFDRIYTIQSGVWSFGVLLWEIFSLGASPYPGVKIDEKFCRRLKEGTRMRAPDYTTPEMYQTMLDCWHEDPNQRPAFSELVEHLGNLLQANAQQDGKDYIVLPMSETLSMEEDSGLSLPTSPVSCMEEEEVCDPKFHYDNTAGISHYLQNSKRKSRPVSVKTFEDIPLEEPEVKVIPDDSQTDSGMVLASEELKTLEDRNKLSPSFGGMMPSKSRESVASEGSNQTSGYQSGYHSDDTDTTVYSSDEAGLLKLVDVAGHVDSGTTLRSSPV

Usually IC50 stands for the midpoint of a concentration-inhibition curve. Consider `Nc1nc(Nc2ccc(S(N)(=O)=O)cc2)nn1C(=O)c1ccc(-c2ccccn2)s1` [Cpd 49, 4-[[5-amino-1-[[5-(2-pyridinyl)-2-thienyl]carbonyl]-1H-1,2,4-triazol-3-yl]amino]-benzenesulfonamide], for which the 50% inhibitory concentration (IC50) in assay [1], in assay [2] and in assay [3] was over 1000 nM throughout.
Regarding `Nc1nc(Nc2ccc(S(N)(=O)=O)cc2)nn1C(=O)c1sccc1-n1cccc1` [Cpd 50, 4-[[5-amino-1-[[3-(1H-pyrrol-1-yl)-2-thienyl]carbonyl]-1H-1,2,4-triazol-3-yl]amino]-benzenesulfonamide], the IC50 in assay [1] is 190 nM; in assay [2], 200 nM; in assay [3] it was 120 nM.
For `CC(C)(C)OC(=O)/C=C/c1ccc(C(=O)n2nc(Nc3ccc(S(N)(=O)=O)cc3)nc2N)s1` [Cpd 52, 3-[5-[[5-amino-3-[[4-(aminosulfonyl)phenyl]amino]-1H-1,2,4-triazol-1-yl]carbonyl]-2-thienyl]-(2E)-2-propenoic acid-1,1-dimethylethyl ester] the same measures were 110 nM, 1470 nM and 35 nM.
In the same order, the values of `Nc1nc(Nc2ccc(S(N)(=O)=O)cc2)nn1C(=O)c1ccc(C#Cc2ccccc2)s1` [Cpd 53, 4-[[5-amino-1-[[5-(phenylethynyl)-2-thienyl]carbonyl]-1H-1,2,4-triazol-3-yl]amino]-benzenesulfonamide] are over 1000 nM, over 1000 nM and over 1000 nM.
On to `Nc1nc(Nc2ccc(S(N)(=O)=O)cc2)nn1C(=O)c1c(F)ccc([N+](=O)[O-])c1F` [Cpd 54, 4-[[5-amino-1-(2,6-difluoro-3-nitrobenzoyl)-1H-1,2,4-triazol-3-yl]amino]-benzenesulfonamide], for which the results for the half-inhibitory concentration (IC50) in assay [1], in assay [2] and in assay [3] were 14000 nM, 6100 nM and 550 nM, respectively.
In the same order, the values of `Cc1cccc(C)c1C(=O)n1nc(Nc2ccc(S(N)(=O)=O)cc2)nc1N` [Cpd 56, 4-[[5-amino-1-(2,6-dimethylbenzoyl)-1H-1,2,4-triazol-3-yl]amino]-benzenesulfonamide] are 20000 nM, 4170 nM and 490 nM.
For `Nc1nc(Nc2ccc(S(=O)(=O)O)cc2)nn1C(=O)c1c(F)cccc1F` [Cpd 59, 4-[[5-amino-1-(2,6-difluorobenzoyl)-1H-1,2,4-triazol-3-yl]amino]-benzenesulfonic Acid] the same measures were 920 nM, 7830 nM and 1540 nM.
In the same order, the values of `Cc1ccc(F)c(C(=O)n2nc(Nc3ccc(S(=O)(=O)O)cc3)nc2N)c1F` [Cpd 60, 4-[[5-amino-1-(2,6-difluoro-3-methylbenzoyl)-1H-1,2,4-triazol-3-yl]amino]-benzenesulfonic acid] are 890 nM, 7460 nM and 1370 nM.
Take `Nc1nc(Nc2ccc(S(N)(=O)=O)cc2)nn1S(=O)(=O)c1c(F)cccc1F` [Cpd 68, 4-[[5-amino-1-[(2,6-difluorophenyl)sulfonyl]-1H-1,2,4-triazol-3-yl]amino]-benzenesulfonamide]: the 50% inhibitory concentration (IC50) in assay [1] was determined as 5140 nM; in assay [3], 660 nM.
In the case of `Cc1ccc(F)c(C(=O)n2nc(Nc3ccc(N4CCN(C)CC4)cc3)nc2N)c1F` [Cpd 72, 1-(2,6-difluoro-3-methylbenzoyl)-N^3-[4-(4-methyl-1-piperazinyl)phenyl]-1H-1,2,4-triazole-3,5-diamine], the figures for the IC50 in assay [1], in assay [2] and in assay [3] were 380 nM, 1490 nM and 1430 nM, respectively.
For `Cc1ccsc1C(=O)n1nc(Nc2ccc(N3CCN(C)CC3)cc2)nc1N` [Cpd 73, N^3-[4-(4-methyl-1-piperazinyl)phenyl]-1-[(3-methyl-2-thienyl)carbonyl]-1H-1,2,4-triazole-3,5-diamine] the same measures were 29 nM, 176 nM and 2200 nM.
In the same order, the values of `Cc1cc(C)c(C(=O)n2nc(Nc3ccc(N4CCN(C)CC4)cc3)nc2N)s1` [Cpd 74, 1-[(3,5-dimethyl-2-thienyl)carbonyl]-N^3-[4-(4-methyl-1-piperazinyl)phenyl]-1H-1,2,4-triazole-3,5-diamine] are 21 nM, 62 nM and 460 nM.
In the same order, the values of `CCc1ccc(C(=O)n2nc(Nc3ccc(N4CCN(C)CC4)cc3)nc2N)s1` [Cpd 75, 1-[(5-ethyl-2-thienyl)carbonyl]-N^3-[4-(4-methyl-1-piperazinyl)phenyl]-1H-1,2,4-triazole-3,5-diamine] are 33 nM, 60 nM and 520 nM.
In the case of `CCc1ccc(C(=O)n2nc(Nc3ccc(S(=O)(=O)N(C)C)cc3)nc2N)s1` [Cpd 86, 4-[[5-amino-1-[(5-ethyl-2-thienyl)carbonyl]-1H-1,2,4-triazol-3-yl]amino]-N,N-dimethyl-benzenesulfonamide], the IC50 amounted to 86.9 nM in assay [1], 413 nM in assay [2] and 109 nM in assay [3].
In the same order, the values of `Cc1ccsc1C(=O)n1nc(Nc2ccc(S(=O)(=O)N(C)C)cc2)nc1N` [Cpd 87, 4-[[5-amino-1-[(3-methyl-2-thienyl)carbonyl]-1H-1,2,4-triazol-3-yl]amino]-N,N-dimethyl-benzenesulfonamide] are 16.8 nM, 436 nM and 217 nM.
Regarding `Nc1nc(Nc2ccc(S(N)(=O)=O)cc2)n(C(=O)c2c(F)cccc2F)n1` [Cpd 122, 4-[[3-amino-1-(2,6-difluorobenzoyl)-1H-1,2,4-triazol-5-yl]amino]-benzenesulfonamide], the half-inhibitory concentration (IC50) in assay [1] was over 10000 nM; in assay [3], 2210 nM.
